Source: PubChem BioAssay (NCI)
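The compound was tested at five concentrations on cells cultured in 96-well plates, with a 48-hour exposure period. TGI marks complete inhibition of growth.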

Experiments:
Experiment in all cases: NCI-60 cell line screen, 48 h
786-0 renal = tested on: 786-0 renal
A498 renal = tested on: A498 renal
A549 NSCLC = tested on: A549 NSCLC
ACHN renal = tested on: ACHN renal
BT-549 breast = tested on: BT-549 breast
CAKI-1 renal = tested on: CAKI-1 renal
COLO 205 colon = tested on: COLO 205 colon
DU-145 prostate = tested on: DU-145 prostate
EKVX NSCLC = tested on: EKVX NSCLC
HCC-2998 colon = tested on: HCC-2998 colon
HCT-116 colon = tested on: HCT-116 colon
HCT-15 colon = tested on: HCT-15 colon
HOP-62 NSCLC = tested on: HOP-62 NSCLC
HOP-92 NSCLC = tested on: HOP-92 NSCLC
HS 578T breast = tested on: HS 578T breast
HT29 colon = tested on: HT29 colon
IGROV1 ovarian = tested on: IGROV1 ovarian
K-562 leukemia = tested on: K-562 leukemia
M14 melanoma = tested on: M14 melanoma
MCF7 breast = tested on: MCF7 breast
MDA-MB-231 breast = tested on: MDA-MB-231 breast
MDA-MB-435 = tested on: MDA-MB-435
MDA-N = tested on: MDA-N
NCI-H226 lung = tested on: NCI-H226 lung
NCI-H23 lung = tested on: NCI-H23 lung
NCI-H460 lung = tested on: NCI-H460 lung
NCI-H522 lung = tested on: NCI-H522 lung
OVCAR-4 ovarian = tested on: OVCAR-4 ovarian
OVCAR-5 ovarian = tested on: OVCAR-5 ovarian
OVCAR-8 ovarian = tested on: OVCAR-8 ovarian
PC-3 prostate = tested on: PC-3 prostate
RPMI-8226 leukemia = tested on: RPMI-8226 leukemia
RXF 393 renal = tested on: RXF 393 renal
SF-268 CNS = tested on: SF-268 CNS
SF-295 CNS = tested on: SF-295 CNS
SF-539 CNS = tested on: SF-539 CNS
SK-MEL-2 melanoma = tested on: SK-MEL-2 melanoma
SK-MEL-28 melanoma = tested on: SK-MEL-28 melanoma
SK-MEL-5 melanoma = tested on: SK-MEL-5 melanoma
SK-OV-3 ovarian = tested on: SK-OV-3 ovarian
SN12C renal = tested on: SN12C renal
SNB-19 CNS = tested on: SNB-19 CNS
SNB-75 CNS = tested on: SNB-75 CNS
SW-620 colon = tested on: SW-620 colon
T-47D breast = tested on: T-47D breast
TK-10 renal = tested on: TK-10 renal
U251 CNS = tested on: U251 CNS
UACC-257 melanoma = tested on: UACC-257 melanoma
UACC-62 melanoma = tested on: UACC-62 melanoma
UO-31 renal = tested on: UO-31 renal

Measured: TGI

C=CCCC1CCCNC1=S (stereo not given)
> 100 µM: all assays above
